# pIC50: −log10 of the molar value.
# System: 883617-216-R-J1-PDC tumor spheroids, viability
# Assay: Anticancer human tumor 883617-216-R-J1-PDC patient-derived bladder carcinoma cell line growth inhibition [PI3K]
# Settings: spheroids with HUVEC and MSC; for pIC50: curve of first compound; for viability, T/C: stronger effect = lower value
# Excerpt: Combinatorial screen of targeted agents with the PI3K inhibitors inavolisib, alpelisib, duvelisib, and copanlisib in multi-cell type tumor spheroids
# A high-throughput screen of multi-cell type tumor spheroids was designed to identify active combinations of targeted small molecules and PI3K pathway inhibitors. Complex spheroids include a stromal component modeled by human endothelial cells (HUVEC) and fibroblasts modeled by human mesenchymal stem cells (MSCs). The concentration ranges selected for each drug and investigational agent were based upon clinically achievable concentrations if the clinical Cmax of the agent was known.
# Compounds. The drugs and investigational agents: inavolisib (NSC800729), alpelisib (NSC765974), duvelisib (NSC772469), copanlisib (NSC816437), ipatasertib (NSC767898), afuresertib (NSC778305), talazoparib (NSC767125), sapanisertib (NSC764658), selumetinib (NSC741078), tovorafenib (DAY101, NSC766906), vemurafenib (NSC761431), ravoxertinib (NSC781343), sotorasib (NSC818433), MRTX1133 (NSC 836407), abemaciclib (NSC 768073), palbociclib (NSC758247), venetoclax (NSC 766270), SY5609 (NSC837396), enzalutamide (NSC755605), and darolutamide (NSC825331), were obtained from the National Cancer Institute (NCI) Developmental Therapeutics Program Chemical Repository. The FDA-approved anticancer drug set is available from the NCI Developmental Therapeutics Program. […] The stock solutions were prepared in dimethyl sulfoxide (DMSO, Sigma-Aldrich, St. Louis, MO, cat. D2650) at 800-fold the tested concentration and stored at -70 degrees C prior to their use. All drugs and investigational agents were tested over a range starting from a high concentration at or near the clinical Cmax and decreasing in half-log increments. If the clinical Cmax for an agent had not been determined, the highest concentration tested was 10 microM.
# Cell Culture. All cells were maintained in an incubator at 37 degrees C and 5% CO2 with 95% humidity. The PDC lines were cultured according to standard operating procedures established by the NCI PDMR (https://pdmr.cancer.gov/sops/default.htm). All PDCs were thawed and cultured in Matrigel-coated flasks prepared with a working solution of 1X Ham's F-12 nutrient mix, without supplementation (Invitrogen, Waltham, MA, cat. 11765054), 100 U/mL penicillin-streptomycin (Invitrogen, cat. 15140122), and 2.5% Matrigel (Corning Inc., Corning, NY, cat. 354248) for the first three passages. The 354836-022-R-J1-PDC, 475296-252-R-J1-PDC, and 997726-040-R-J2-PDC lines were cultured in 6A media, which includes advanced DMEM/F-12 (Thermo Fisher Scientific, cat. 12634028), 10 mM HEPES (Thermo Fisher Scientific, cat. 15630080), 1X GlutaMAX supplement (Thermo Fisher Scientific, cat. 35050061), 0.1 mg/mL primocin (InvivoGen, San Diego, CA, cat. ant-pm-2), 10% defined fetal bovine serum, heat inactivated (HyClone Laboratories Inc., Logan, UT, cat. SH30070.03HI), 50% L-WRN conditioned media (ATCC, cat. CRL-3276), 1.25 mM N-Acetyl-L-cysteine (Sigma-Aldrich, cat. A9165), 10 mM nicotinamide (Sigma-Aldrich, cat. N0636), 1X B-27 supplement (Thermo Fisher Scientific, cat. 17504044), 1X N-2 supplement (Thermo Fisher Scientific, cat. 17502048), and 10 microM Y-27632 dihydrochloride (Tocris Bioscience, Bristol, United Kingdom, cat. 1254). The 624824-186-R-J2-PDC line was cultured in 6C/Colon 1B media, which includes all 6A media components plus 50 ng/mL human EGF recombinant protein (Thermo Fisher Scientific, cat. PHG0311). […]
# 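Also: spheroids exposed to agents for 7 days before the viability read.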
structure (smiles),measurement,setting,value
CCN1CCN(Cc2ccc(Nc3ncc(F)c(-c4cc(F)c5nc(C)n(C(C)C)c5c4)n3)nc2)CC1 + CC(Nc1ncnc2nc[nH]c12)c1cc2cccc(Cl)c2c(=O)n1-c1ccccc1,pIC50,second compound 0.0316 µM,< 6.00
same,pIC50,second compound 0.1 µM,< 6.00
same,pIC50,second compound 0.316 µM,6.24
same,pIC50,second compound 1 µM,6.55
same,pIC50,second compound 3.16 µM,7.50
same,pIC50,second compound 10 µM,8.47
same,"viability, T/C","second compound 0.0316 µM, first compound 0.00316 µM",91.4%
same,"viability, T/C","second compound 0.0316 µM, first compound 0.01 µM",79.4%
same,"viability, T/C","second compound 0.0316 µM, first compound 0.0316 µM",79.2%
same,"viability, T/C","second compound 0.0316 µM, first compound 0.1 µM",65.7%
same,"viability, T/C","second compound 0.0316 µM, first compound 0.316 µM",56.3%
same,"viability, T/C","second compound 0.0316 µM, first compound 1 µM",51.3%
same,"viability, T/C","second compound 0.1 µM, first compound 0.00316 µM",89.3%
same,"viability, T/C","second compound 0.1 µM, first compound 0.01 µM",88.8%
same,"viability, T/C","second compound 0.1 µM, first compound 0.0316 µM",71.6%
same,"viability, T/C","second compound 0.1 µM, first compound 0.1 µM",60.2%
same,"viability, T/C","second compound 0.1 µM, first compound 0.316 µM",64.1%
same,"viability, T/C","second compound 0.1 µM, first compound 1 µM",50.7%
same,"viability, T/C","second compound 0.316 µM, first compound 0.00316 µM",87.5%
same,"viability, T/C","second compound 0.316 µM, first compound 0.01 µM",78.4%
same,"viability, T/C","second compound 0.316 µM, first compound 0.0316 µM",60.8%
same,"viability, T/C","second compound 0.316 µM, first compound 0.1 µM",67.8%
same,"viability, T/C","second compound 0.316 µM, first compound 0.316 µM",46%
same,"viability, T/C","second compound 0.316 µM, first compound 1 µM",49.6%
same,"viability, T/C","second compound 1 µM, first compound 0.00316 µM",69.6%
same,"viability, T/C","second compound 1 µM, first compound 0.01 µM",69.4%
same,"viability, T/C","second compound 1 µM, first compound 0.0316 µM",59.3%
same,"viability, T/C","second compound 1 µM, first compound 0.1 µM",52.2%
same,"viability, T/C","second compound 1 µM, first compound 0.316 µM",54.8%
same,"viability, T/C","second compound 1 µM, first compound 1 µM",40.2%
same,"viability, T/C","second compound 3.16 µM, first compound 0.00316 µM",72.5%
same,"viability, T/C","second compound 3.16 µM, first compound 0.01 µM",61.9%
same,"viability, T/C","second compound 3.16 µM, first compound 0.0316 µM",50.3%
same,"viability, T/C","second compound 3.16 µM, first compound 0.1 µM",40.7%
same,"viability, T/C","second compound 3.16 µM, first compound 0.316 µM",40.1%
same,"viability, T/C","second compound 3.16 µM, first compound 1 µM",35.2%
same,"viability, T/C","second compound 10 µM, first compound 0.00316 µM",51.3%
same,"viability, T/C","second compound 10 µM, first compound 0.01 µM",34.8%
same,"viability, T/C","second compound 10 µM, first compound 0.0316 µM",34%
same,"viability, T/C","second compound 10 µM, first compound 0.1 µM",30.8%
same,"viability, T/C","second compound 10 µM, first compound 0.316 µM",28.1%
same,"viability, T/C","second compound 10 µM, first compound 1 µM",27%
